In patent US20150258043A1, “USE OF SPHINGOID LONG CHAIN BASES AND THEIR ANALOGS IN TREATING AND PREVENTING BACTERIAL INFECTIONS” (YEDA RESEARCH AND DEVELOPMENT CO. LTD., priority 2012, published 2015):
Entries after “also recorded” stand apart in the source; their conditions may differ. Where two headings read alike, the source gives them in different places.

What was measured:
[1] = system: P. aeruginosa strain 762; experiment: Effect of LCBs on P. aeruginosa growth in vitro (colony counts); type: cell-based, Pseudomonas aeruginosa; settings: for inhibition of P. aeruginosa growth in vitro (in words): concentrations up to 50 μM
Description: P. aeruginosa strain 762 or ATCC 27853 were grown in LB medium at 37° C. until the early logarithmic phase (OD550 0.2). Bacteria were then diluted in PBS to a concentration of 5×10^3 CFU/ml. Stock solutions of sphingolipids (5 mM in 7.5% n-Octyl-β-D-Glucopyranoside (OGP) or in DMSO were prepared by sonication. Sphingolipids were added to the bacteria (0.1-50 μM in 0.075% OGP or 1% DMSO). Bacteria were incubated with sphingolipids for 2 hr at 37° C. and a sample of 200 μl bacteria solution were plated on LB agar plates, incubated overnight at 37° C. and colonies were counted.
The direct effect of sphingosine and other sphingoid long chain bases (LCBs) on the growth of P. aeruginosa was examined in vitro. Bacteria were incubated with a variety of LCBs and the EC50 values on bacterial growth were determined (Table 1).

[2] = cited from earlier work
[3] = system: P. aeruginosa strains 762, PA14 and ATCC 27853; experiment: Pulmonary P. aeruginosa infection of CF and CerS2 null mice, inhalation treatment (bacteria in lung, sickness score); type: in vivo, mouse; settings: CF and CerS2 null mice; inhalation (125 μM) 1 h before or 1 h after intranasal infection with 1×10^8 CFU
Description: (A,B) The number of bacteria in the lungs and the overall sickness score (C,D) of WT, CerS2 null and CF mice 3-4 h after intranasal infection with 1×10^8 CFU of P. aeruginosa strains 762 (A,C) and CF mice with strains PA14 and ATCC 27853. Mice were inhaled with 0.9% NaCl or acid ceramidase 1 h prior (b.i.) to infection, or with sphingosine or FTY720 1 h before (b.i.) or 1 h after (a.i.) infection. Sickness score 4, severely affected (unresponsive animal); score 3 affected, (heavy breathing, low body temperature, ruffled fur) score 2, moderately affected (ruffled fur, heavy breathing); score 1, slightly affected (ruffled fur); score 0, unaffected (healthy appearance). Data are means±s.d., n=4.
Pulmonary infection of CF or CerS2 mice was achieved by intranasal application of P. aeruginosa strains 762, ATCC 27853 or PA14. Mice inhaled acid ceramidase, sphingosine, FTY720 or a combination of sphingosine and ceramide 1 hr before or after pulmonary infection. The number of bacteria in the lung was determined by culturing aliquots of lysed lungs on agar plates. Clinical symptoms of the infection were scored.
Inhalation was performed with a PARI Boy SX nebulizer (PARI GmbH, Starnberg, Germany). This nebulizer generates a fine aerosol mist by pumping the fluid with an air jet. The mice inhaled the aerosol via a mask that is part of an oral inhalation device for children (LL-Nebulizer); the mask was clipped at the sides to cover only the mouse's nose and the surrounding part of the face. […]
P. aeruginosa were grown for 14 to 14.5 h on fresh tryptic soy agar (TSA) plates (Becton Dickinson Biosciences, Germany). […] The bacterial OD was determined, and the bacteria were diluted in prewarmed H/S to a concentration of 1×10^8 CFU per 20 μL. […]
Lungs were removed, homogenised and lysed for 10 min in 5 mg/ml saponin to release intracellular bacteria. […] Bacterial counts (CFU) were counted after 18 h.

[4] = system: P. aeruginosa ATCC 27853 internalization into tracheal epithelial cells; experiment: Uptake of P. aeruginosa into tracheal epithelial cells with cytochalasin B; type: cell-based, mouse; settings: 10 μM cytochalasin B; strain ATCC 27853; data not shown
[5] = Pseudomonas aeruginosa, P. aeruginosa strain 762, 2 hrs at 37° C. in 0.075% OGP, colonies counted, at least 3 independent experiments, read-out: EC50 (μM) ± S.D.
[6] = Pseudomonas aeruginosa, Table 2 non-inhibitors, strain 762, up to 50 μM in 0.075% OGP, 2 hrs at 37° C., read-out: EC50
[7] = Pseudomonas aeruginosa, 762, Table 3, Example 3, method of Example 2, n=3 for each analog, given as ranges, read-out: EC50

CCCCCCCCCCCCCCC[C@@H](O)[C@@H](N)CO [L-erythro-dihydrosphingosine, L-erythro-dihydrosphingosine (L-erythro-sphinganine)]
EC50 [1, 5]: 0.8 ± 0.1 µM

CCCCCCCCCCCCCCC[C@H](O)[C@@H](N)CO [D-threo-dihydrosphingosine, D-threo-dihydrosphingosine (D-threo-sphinganine)]
EC50 [1, 5]: 0.5 ± 0.1 µM

CCCCCCCCC/C=C/[C@H](O)[C@H](N)CO [D-erythro-C14-Sphingosine]
EC50 [1, 6]: > 50 µM

CCCCCCCCCCCCC/C=C/[C@@H](O)[C@@H](N)CO [L-erythro-sphingosine]
EC50 [1, 5]: 0.8 ± 0.1 µM

CCCCCCCCCCCCCCC[C@@H](O)[C@H](CO)NC(C)=O [N-acetyl-D-erythro-dihydrosphingosine]
EC50 [1, 6]: > 50 µM
inhibition of P. aeruginosa growth in vitro (in words) [1]: reduces the activity

CCCCCCCCCCCCC/C=C/[C@@H](O)[C@H](CO)NC [Monomethyl D-erythro-Sphingosine, Monomethyl D-erythro-sphingosine]
EC50 [1, 5]: 1.9 ± 0.1 µM

CCCC[C@@H](C)[C@@H](OC(=O)C[C@@H](CC(=O)O)C(=O)O)[C@H](C[C@@H](C)C[C@H](O)CCCC[C@@H](O)C[C@H](O)[C@H](C)N)OC(=O)C[C@@H](CC(=O)O)C(=O)O [FB1, fumonisin B1, reference compound]
EC50 ([1]; Pseudomonas aeruginosa, 762, 2 h): > 50 µM

CCCCCCCCCCCCC/C=C/[C@@H](O)[C@H](N)CO (stereo in doubt) [L-threo-sphingosine]
EC50 [1, 7]: 0.5 to 1 µM
EC50 [1, 5]: 0.6 ± 0.2 µM

CCCCCCCCCCCCC/C=C/[C@@H](O)CN [1-desoxymethyl sphingosine, 1-desoxymethylsphingosine]
EC50 [1, 5]: 0.7 ± 0.1 µM

CCCCCCCCCCCCCC[C@@H](O)[C@@H](O)[C@@H](N)CO [Phyto-sphingosine, 4-D-hydroxysphinganine (phytosphingosine)]
EC50 [1, 5]: 0.9 µM
category as bacterial growth inhibitor ([1]; classes by EC50): strong inhibitor

CCCCCCCCc1ccc(CC[C@](N)(CO)CCP(=O)(O)O)cc1 [(R)-FTY-phosphonate]
EC50 [1, 7]: 5 to 50 µM

CCCCCCCCCCCCC/C=C/[C@H](O)[C@H](N)COP(=O)(O)O (stereo in doubt) [Sphingosine-1-P, sphingosine-1-phosphate, reference compound]
EC50 [1, 7]: > 50 µM
EC50 [1, 6]: > 50 µM
inhibition of P. aeruginosa growth in vitro (in words) [1]: without effect
inhibition of P. aeruginosa growth in vitro (in words) ([1]; listed as sphingosine-1-phosphate (S1P)): did not inhibit growth of the bacteria at all

CCCCCCCCCCC/C=C/[C@H](O)[C@H](N)CO [D-erythro-C16-Sphingosine, D-erythro-C16-sphingosine]
EC50 [1, 5]: 1 ± 0.2 µM

CCCCCCCCc1ccc(CCC(N)(CO)CO)cc1 [FTY720, 2-amino-2-[2-(4-octylphenyl)ethyl]propane-1,3-diol]
EC50 [1, 7]: 1 to 5 µM
EC50 [1, 5]: 1.9 µM
pK (in PBS) ([2]; superscript reference marks): 7.8^3
protection from pulmonary P. aeruginosa infection [3]: completely protected CF and CerS2 null mice from P. aeruginosa infection and even eliminated an existing infection; also recorded: potent inhibitor in vivo; also recorded: rescue CF and CerS2 null mice from pulmonary P. aeruginosa infection; also recorded: prevents pulmonary P. aeruginosa infection

CCCCCCCCCCCCC/C=C/[C@H](O)[C@@H](C)N [1-deoxy-D-erythro-sphingosine]
EC50 [1, 5]: 0.9 ± 0.1 µM

CCCCCCCCCCCCC/C=C/C[C@H](N)CO [3-deoxy-D-erythro-sphingosine]
EC50 [1, 5]: 0.5 µM

CCCCCCCCCCCCC/C=C/[C@H](O)[C@@H](N)CO [D-threo-sphingosine]
EC50 [1, 5]: 0.6 ± 0.1 µM

CCCCCCCCCCCCCCC[C@@H](O)[C@@H](N)CO [D-erythro-dihydrosphingosine, (2S,3R)-2-aminooctadecane-1,3-diol]
EC50 [1, 7]: 0.5 to 1 µM
EC50 [1, 5]: 0.6 ± 0.5 µM

CCCC[C@@H](C)[C@@H](OC(=O)C[C@@H](CC(=O)O)C(=O)O)[C@H](C[C@@H](C)C[C@H](O)CCCC[C@@H](O)C[C@H](O)[C@H](C)N)OC(=O)C[C@@H](CC(=O)O)C(=O)O (stereo in doubt) [FB1, fumonisin B1, reference compound]
EC50 ([1]; Pseudomonas aeruginosa, 762): > 50 µM
inhibition of P. aeruginosa growth in vitro (in words) [1]: without effect; also recorded: did not inhibit growth of the bacteria at all
pKa (in PBS) ([2]; superscript reference mark): >9^4

CCCCCCCCCCCCCCC[C@H](O)[C@@H](C)N [1-deoxy-D-erythro-dihydrosphingosine]
EC50 [1, 5]: 0.7 µM

CCCCCCC/C=C/[C@@H](O)[C@@H](N)CO [D-erythro-C12-Sphingosine]
EC50 [1, 6]: > 50 µM

CCCCCCCCCCCCC/C=C/[C@H](O)[C@H](N)CO[C@@H]1O[C@H](CO)[C@H](O)[C@H](O)[C@H]1O (stereo in doubt) [Galactosyl Sphingosine (Psychosine), Galactosyl D-erythro-sphingosine (psychosine)]
EC50 [1, 7]: 1 to 5 µM
EC50 [1, 5]: 2.2 ± 1.4 µM

CCCCCCCCCCCCCCC/C=C/[C@H](O)[C@H](N)CO [D-erythro-C20-Sphingosine, D-erythro-C20-sphingosine]
EC50 [1, 5]: 0.3 µM
inhibition of P. aeruginosa growth in vitro (in words) [1]: more potent than C18-sphingosine

C=C1[C@@H](C)[C@H]2[C@H](Cc3ccccc3)NC(=O)[C@]23OC(=O)/C=C/[C@H](O)CCC[C@@H](C)C/C=C/[C@H]3[C@@H]1O [cytochalasin B]
internalization of P. aeruginosa into tracheal epithelial cells [4]: prevented internalization

CCCCCCCCCCCCCCC[C@@H](O)[C@H](N)CO (stereo in doubt) [L-threo-dihydrosphingosine (Safingol), L-threo-dihydrosphingosine (L-threo-sphinganine)]
EC50 [1, 7]: 0.5 to 1 µM
EC50 [1, 5]: 0.4 µM
inhibition of P. aeruginosa growth in vitro (in words) ([1]; listed as L-threo-dihydrosphingosine): inhibits as well as the natural occurring D-erythro enantiomer
inhibition of P. aeruginosa growth in vitro (in words) ([1]; listed as L-threo-sphinganine): more potent than the neutral ones
